Tested on: MV-4-11 cells
Assay: Gene expression microarray analysis (Affymetrix PrimeView) and GSEA
Type: cell-based, human
Design: RFU PODN (11730768_x_at) / Fold change /veh PODN (11730768_x_at) / RFU LINC00158 (11744669_a_at) / Fold change /veh LINC00158 (11744669_a_at) / RFU DUSP10 (11751237_a_at) / Fold change /veh DUSP10 (11751237_a_at) / RFU ID3 (11757404_x_at) / Fold change /veh ID3 (11757404_x_at) / RFU PLEKHG5 (11737974_s_at) / Fold change /veh PLEKHG5 (11737974_s_at) / RFU LRRC4B (11730491_at) / Fold change /veh LRRC4B (11730491_at) / RFU GIMAP4 (11747438_a_at) / Fold change /veh GIMAP4 (11747438_a_at) / RFU KRT8 (11758183_x_at) / Fold change /veh KRT8 (11758183_x_at) / RFU CNN1 (11734310_a_at) / Fold change /veh CNN1 (11734310_a_at) / RFU VPS37D (11726825_at) / Fold change /veh VPS37D (11726825_at) / RFU C10orf10 (11716522_x_at) / Fold change /veh C10orf10 (11716522_x_at) / RFU KIR2DL2 /// KIR2DL4 /// KIR2DL5A /// KIR2DL5B /// KIR2DS1 /// KIR2DS2 /// KIR2DS3 /// KIR2DS4 /// KIR3DL3 /// KIR3DL3 /// KIR3DS1 (11738374_at) / Fold change /veh KIR2DL2 /// KIR2DL4 /// KIR2DL5A /// KIR2DL5B /// KIR2DS1 /// KIR2DS2 /// KIR2DS3 /// KIR2DS4 /// KIR3DL3 /// KIR3DL3 /// KIR3DS1 (11738374_at) / RFU C1QL1 (11718748_at) / Fold change /veh C1QL1 (11718748_at) / RFU TMPRSS4 (11747572_a_at) / Fold change /veh TMPRSS4 (11747572_a_at) / RFU HAMP (11756126_x_at) / Fold change /veh HAMP (11756126_x_at) / RFU RNFT2 (11725882_a_at) / Fold change /veh RNFT2 (11725882_a_at) / RFU NR4A2 (11747474_a_at) / Fold change /veh NR4A2 (11747474_a_at) / RFU ABCC12 (11746883_a_at) / Fold change /veh ABCC12 (11746883_a_at) / RFU TMEM136 (11760407_x_at) / Fold change /veh TMEM136 (11760407_x_at) / RFU CLDN22 /// WWC2 (11732394_at) / Fold change /veh CLDN22 /// WWC2 (11732394_at) / RFU HLA-DPB1 (11760878_x_at) / Fold change /veh HLA-DPB1 (11760878_x_at) / RFU SPINT1 (11716480_a_at) / Fold change /veh SPINT1 (11716480_a_at) / RFU GAP43 (11754022_s_at) / Fold change /veh GAP43 (11754022_s_at) / RFU A4GNT (11735810_at) / Fold change /veh A4GNT (11735810_at) / RFU PRB3 (11715151_x_at) / Fold change /veh PRB3 (11715151_x_at) / RFU TUBB4B (11761932_at) / Fold change /veh TUBB4B (11761932_at) / RFU CAPN14 (11732068_a_at) / Fold change /veh CAPN14 (11732068_a_at) / RFU TMCC2 (11721928_a_at) / Fold change /veh TMCC2 (11721928_a_at) / RFU IRGQ (11745062_a_at) / Fold change /veh IRGQ (11745062_a_at) / RFU FAM174B (11720279_a_at) / Fold change /veh FAM174B (11720279_a_at) / RFU TMPRSS4 (11748680_a_at) / Fold change /veh TMPRSS4 (11748680_a_at) / RFU FAM212B (11763350_a_at) / Fold change /veh FAM212B (11763350_a_at) / RFU PLEKHG5 (11743358_a_at) / Fold change /veh PLEKHG5 (11743358_a_at) / RFU ZSCAN30 (11745921_a_at) / Fold change /veh ZSCAN30 (11745921_a_at) / RFU CMKLR1 (11741424_a_at) / Fold change /veh CMKLR1 (11741424_a_at) / RFU LOC101060620 /// MAPK8IP1 (11723275_at) / Fold change /veh LOC101060620 /// MAPK8IP1 (11723275_at) / RFU SPTSSB (11747773_x_at) / Fold change /veh SPTSSB (11747773_x_at) / RFU PRSS12 (11739890_at) / Fold change /veh PRSS12 (11739890_at) / RFU BIN1 (11741810_x_at) / Fold change /veh BIN1 (11741810_x_at) / RFU WNT11 (11732464_a_at) / Fold change /veh WNT11 (11732464_a_at) / RFU C10orf10 (11716521_a_at) / Fold change /veh C10orf10 (11716521_a_at) / RFU C5orf56 (11738089_at) / Fold change /veh C5orf56 (11738089_at) / RFU CYB561 (11721691_x_at) / Fold change /veh CYB561 (11721691_x_at) / RFU ANKRD19P (11752326_a_at) / Fold change /veh ANKRD19P (11752326_a_at) / RFU OR2T12 /// OR2T33 /// OR2T8 (11738714_s_at) / Fold change /veh OR2T12 /// OR2T33 /// OR2T8 (11738714_s_at) / RFU VCAN (11748164_a_at) / Fold change /veh VCAN (11748164_a_at) / RFU JSRP1 (11732532_at) / Fold change /veh JSRP1 (11732532_at) / RFU KRTAP10-11 (11738290_x_at) / Fold change /veh KRTAP10-11 (11738290_x_at) / RFU MYO3A (11730013_a_at) / Fold change /veh MYO3A (11730013_a_at) / RFU EBF3 (11725865_a_at) / Fold change /veh EBF3 (11725865_a_at) / RFU CAMK2N1 (11719241_x_at) / Fold change /veh CAMK2N1 (11719241_x_at) / RFU C5orf56 (11738088_a_at) / Fold change /veh C5orf56 (11738088_a_at) / RFU OLFML3 (11715873_a_at) / Fold change /veh OLFML3 (11715873_a_at) / RFU LOC100653217 /// NTM (11731650_a_at) / Fold change /veh LOC100653217 /// NTM (11731650_a_at) / RFU MAPK11 (11762145_a_at) / Fold change /veh MAPK11 (11762145_a_at) / RFU FIZ1 (11724087_x_at) / Fold change /veh FIZ1 (11724087_x_at) / RFU OASL (11726364_x_at) / Fold change /veh OASL (11726364_x_at) / RFU SOX15 (11748057_x_at) / Fold change /veh SOX15 (11748057_x_at) / RFU CD79A (11719716_a_at) / Fold change /veh CD79A (11719716_a_at) / RFU HIST1H1D (11736915_at) / Fold change /veh HIST1H1D (11736915_at) / RFU CASKIN2 (11723855_a_at) / Fold change /veh CASKIN2 (11723855_a_at) / RFU LOC730098 (11760151_x_at) / Fold change /veh LOC730098 (11760151_x_at) / RFU OR4N2 (11742367_at) / Fold change /veh OR4N2 (11742367_at) / RFU PRRT2 (11749266_a_at) / Fold change /veh PRRT2 (11749266_a_at) / RFU SNX32 (11753110_a_at) / Fold change /veh SNX32 (11753110_a_at) / RFU CDHR5 (11726645_a_at) / Fold change /veh CDHR5 (11726645_a_at) / RFU RCAN1 (11760418_a_at) / Fold change /veh RCAN1 (11760418_a_at) / RFU FAM167A (11723789_a_at) / Fold change /veh FAM167A (11723789_a_at) / RFU FAM26E (11764081_at) / Fold change /veh FAM26E (11764081_at) / RFU ISYNA1 (11749810_s_at) / Fold change /veh ISYNA1 (11749810_s_at) / RFU ACY1 (11761880_at) / Fold change /veh ACY1 (11761880_at) / RFU 11764098_at / Fold change /veh 11764098_at / RFU SAMD14 (11745864_x_at) / Fold change /veh SAMD14 (11745864_x_at) / RFU NPB (11741838_a_at) / Fold change /veh NPB (11741838_a_at) / RFU TMPRSS6 (11731388_a_at) / Fold change /veh TMPRSS6 (11731388_a_at) / RFU KRTAP10-2 (11738614_at) / Fold change /veh KRTAP10-2 (11738614_at) / RFU ARHGAP8 /// PRR5-ARHGAP8 (11727945_x_at) / Fold change /veh ARHGAP8 /// PRR5-ARHGAP8 (11727945_x_at) / RFU KRTAP5-7 /// NADSYN1 (11734609_at) / Fold change /veh KRTAP5-7 /// NADSYN1 (11734609_at) / RFU RASL12 (11751679_a_at) / Fold change /veh RASL12 (11751679_a_at) / RFU CDKN2B (11736163_a_at) / Fold change /veh CDKN2B (11736163_a_at) / RFU PRF1 (11729649_at) / Fold change /veh PRF1 (11729649_at) / RFU, ZNF638 /// ZNF638-IT1 / Fold change vs veh, ZNF638 /// ZNF638-IT1 / RFU, PANK3 / Fold change vs veh, PANK3 / RFU, SH3YL1 / Fold change vs veh, SH3YL1 / RFU, ZEB2 / Fold change vs veh, ZEB2 / RFU, NRIP1 / Fold change vs veh, NRIP1 / RFU, PTTG1IP / Fold change vs veh, PTTG1IP / RFU, CAPN2 / Fold change vs veh, CAPN2 / RFU, MED14 / Fold change vs veh, MED14 / RFU, SNORA58 / Fold change vs veh, SNORA58 / RFU, C1orf63 / Fold change vs veh, C1orf63 / RFU, LRRFIP1 / Fold change vs veh, LRRFIP1 / RFU, NDUFAF7 / Fold change vs veh, NDUFAF7 / RFU, SLC12A2 / Fold change vs veh, SLC12A2 / RFU, IBTK / Fold change vs veh, IBTK / RFU, ESF1 / Fold change vs veh, ESF1 / Fold change vs veh, TMEM50B / RFU, TAOK1 / Fold change vs veh, TAOK1 / RFU, ACBD3 / Fold change vs veh, ACBD3 / RFU, TMA16 / Fold change vs veh, TMA16 / RFU, RWDD3 / Fold change vs veh, RWDD3 / RFU, BCAT1 / Fold change vs veh, BCAT1 / RFU, EDEM3 / Fold change vs veh, EDEM3 / RFU, TMEM33 / Fold change vs veh, TMEM33 / RFU, WDR75 / Fold change vs veh, WDR75 / RFU, AHCTF1 / Fold change vs veh, AHCTF1 / RFU, TFRC / Fold change vs veh, TFRC / RFU, ZDHHC17 / Fold change vs veh, ZDHHC17 / RFU, NOM1 / Fold change vs veh, NOM1 / RFU, ARL8B / Fold change vs veh, ARL8B / RFU, ZBTB11 / Fold change vs veh, ZBTB11 / RFU, TAMM41 / Fold change vs veh, TAMM41 / RFU, KIAA1704 /// LOC100996395 / Fold change vs veh, KIAA1704 /// LOC100996395 / RFU, ING1 / Fold change vs veh, ING1 / RFU, TRMT61B / Fold change vs veh, TRMT61B / RFU, FUBP3 / Fold change vs veh, FUBP3 / RFU, TP53 / Fold change vs veh, TP53 / RFU, TNKS2 / Fold change vs veh, TNKS2 / RFU, ZFP14 / Fold change vs veh, ZFP14 / RFU, ACTR2 / Fold change vs veh, ACTR2 / RFU, PPP3R1 / Fold change vs veh, PPP3R1 / RFU, PIK3R1 / Fold change vs veh, PIK3R1 / RFU, HNRNPA1 / Fold change vs veh, HNRNPA1 / RFU, RNF170 / Fold change vs veh, RNF170 / RFU, ZNF28 / Fold change vs veh, ZNF28 / RFU, RNGTT / Fold change vs veh, RNGTT / RFU, OGT / Fold change vs veh, OGT / RFU, BRD1 / Fold change vs veh, BRD1 / RFU, MARS / Fold change vs veh, MARS / RFU, ZNF655 / Fold change vs veh, ZNF655 / RFU, FAHD1 / Fold change vs veh, FAHD1 / RFU, BDP1 / Fold change vs veh, BDP1 / RFU, LRRCC1 / Fold change vs veh, LRRCC1 / RFU, ARID1A / Fold change vs veh, ARID1A / RFU, ZNF146 / Fold change vs veh, ZNF146 / RFU, ZNF330 / Fold change vs veh, ZNF330 / RFU, GPN3 / Fold change vs veh, GPN3 / RFU, C9orf123 / Fold change vs veh, C9orf123 / RFU, N4BP2L2 / Fold change vs veh, N4BP2L2 / RFU, ARFIP1 / Fold change vs veh, ARFIP1 / RFU, FAM179B / Fold change vs veh, FAM179B / RFU, BCL10 / Fold change vs veh, BCL10 / RFU, UHRF1BP1L / Fold change vs veh, UHRF1BP1L / RFU, BET1 / Fold change vs veh, BET1 / RFU, CNOT2 / Fold change vs veh, CNOT2 / RFU, ZNF268 / Fold change vs veh, ZNF268 / Fold change vs veh, ZNF507 / RFU, DGCR2 / Fold change vs veh, DGCR2 / RFU, WDSUB1 / Fold change vs veh, WDSUB1 / Fold change vs veh, HSP90B1 /// MIR3652 / RFU, ADSS / Fold change vs veh, ADSS / RFU, GK / Fold change vs veh, GK / RFU, ZNF148 / Fold change vs veh, ZNF148 / RFU, TAF9 / Fold change vs veh, TAF9 / RFU, SLC1A5 / Fold change vs veh, SLC1A5 / RFU, SLMO2 / Fold change vs veh, SLMO2 / RFU, ABCC4 / Fold change vs veh, ABCC4 / RFU, LOC101060439 /// RAP1B / Fold change vs veh, LOC101060439 /// RAP1B / RFU, RFX7 / Fold change vs veh, RFX7 / RFU, GTPBP10 / Fold change vs veh, GTPBP10 / RFU, CNEP1R1 / Fold change vs veh, CNEP1R1 / RFU, BIVM-ERCC5 /// ERCC5 / Fold change vs veh, BIVM-ERCC5 /// ERCC5 / RFU, ILF3 / Fold change vs veh, ILF3 / RFU 11762660_at / Fold change /veh 11762660_at / RFU VCAN (11757783_s_at) / Fold change /veh VCAN (11757783_s_at) / RFU DDX43 (11728927_at) / Fold change /veh DDX43 (11728927_at) / RFU KRT8 (11758188_x_at) / Fold change /veh KRT8 (11758188_x_at) / RFU NKD1 (11759106_at) / Fold change /veh NKD1 (11759106_at) / RFU SRD5A1 (11742802_a_at) / Fold change /veh SRD5A1 (11742802_a_at) / RFU TPSAB1 /// TPSB2 (11721975_s_at) / Fold change /veh TPSAB1 /// TPSB2 (11721975_s_at) / RFU GSTM3 (11746129_a_at) / Fold change /veh GSTM3 (11746129_a_at) / RFU IL23R (11737362_x_at) / Fold change /veh IL23R (11737362_x_at) / RFU TMEM51 (11727254_a_at) / Fold change /veh TMEM51 (11727254_a_at) / RFU PIWIL2 (11732686_x_at) / Fold change /veh PIWIL2 (11732686_x_at) / RFU ORM1 (11744905_x_at) / Fold change /veh ORM1 (11744905_x_at) / RFU CCDC152 (11743942_at) / Fold change /veh CCDC152 (11743942_at) / RFU ECM1 (11717891_a_at) / Fold change /veh ECM1 (11717891_a_at) / RFU IL23R (11748794_a_at) / Fold change /veh IL23R (11748794_a_at) / RFU TNFAIP8L3 (11732012_x_at) / Fold change /veh TNFAIP8L3 (11732012_x_at) / RFU MBOAT4 (11741988_at) / Fold change /veh MBOAT4 (11741988_at) / RFU 11764193_at / Fold change /veh 11764193_at / RFU TMEM53 (11763286_at) / Fold change /veh TMEM53 (11763286_at) / RFU MAGEB2 (11727129_at) / Fold change /veh MAGEB2 (11727129_at) / RFU TMEM200A (11744735_a_at) / Fold change /veh TMEM200A (11744735_a_at) / RFU CCDC152 (11751479_a_at) / Fold change /veh CCDC152 (11751479_a_at) / RFU FAM211A (11726209_a_at) / Fold change /veh FAM211A (11726209_a_at) / RFU RGS16 (11746705_a_at) / Fold change /veh RGS16 (11746705_a_at) / RFU VCAN (11755009_s_at) / Fold change /veh VCAN (11755009_s_at) / RFU RHOB (11743442_s_at) / Fold change /veh RHOB (11743442_s_at) / RFU RGS16 (11720943_a_at) / Fold change /veh RGS16 (11720943_a_at) / RFU RGS16 (11720944_at) / Fold change /veh RGS16 (11720944_at) / RFU, VPS4B / Fold change vs veh, VPS4B / RFU, CREB1 / Fold change vs veh, CREB1 / RFU, DNAJC13 / Fold change vs veh, DNAJC13 / RFU, GNAQ / Fold change vs veh, GNAQ / RFU, CDK5R1 / Fold change vs veh, CDK5R1 / RFU, ZRANB3 / Fold change vs veh, ZRANB3 / RFU, CUL4A / Fold change vs veh, CUL4A / RFU, CCNY / Fold change vs veh, CCNY / RFU, UFL1 / Fold change vs veh, UFL1 / RFU, COG3 / Fold change vs veh, COG3 / RFU, DIAPH2 / Fold change vs veh, DIAPH2 / RFU, SKA2 / Fold change vs veh, SKA2 / RFU, AFF3 / Fold change vs veh, AFF3 / RFU, LMF1 / Fold change vs veh, LMF1 / RFU, IPO11 / Fold change vs veh, IPO11 / RFU, DFFB / Fold change vs veh, DFFB / RFU, FOXP1 / Fold change vs veh, FOXP1 / RFU, CARD8 / Fold change vs veh, CARD8 / RFU, STRN3 / Fold change vs veh, STRN3 / RFU, ADK / Fold change vs veh, ADK / RFU, RASSF2 / Fold change vs veh, RASSF2 / RFU, WIPF1 / Fold change vs veh, WIPF1 / RFU, LARP1B / Fold change vs veh, LARP1B / RFU, RASA1 / Fold change vs veh, RASA1 / RFU, RB1 / Fold change vs veh, RB1 / RFU, PPFIA1 / Fold change vs veh, PPFIA1 / RFU, MAT2A / Fold change vs veh, MAT2A / RFU, CCT5 / Fold change vs veh, CCT5 / RFU, WDR92 / Fold change vs veh, WDR92 / RFU, CUX1 / Fold change vs veh, CUX1 / RFU, TTC7A / Fold change vs veh, TTC7A / RFU, TMEM135 / Fold change vs veh, TMEM135 / RFU, DEPTOR / Fold change vs veh, DEPTOR / RFU, CPM / Fold change vs veh, CPM / RFU, DNAJB6 / Fold change vs veh, DNAJB6 / RFU, CACNA2D3 / Fold change vs veh, CACNA2D3 / RFU, DTX4 / Fold change vs veh, DTX4 / RFU, TFCP2 / Fold change vs veh, TFCP2 / RFU, GMCL1 /// GMCL1P1 / Fold change vs veh, GMCL1 /// GMCL1P1 / RFU, AEBP2 / Fold change vs veh, AEBP2 / RFU, SNHG1 /// SNORD22 /// SNORD25 /// SNORD26 /// SNORD27 /// SNORD28 /// SNORD29 /// SNORD31 / Fold change vs veh, SNHG1 /// SNORD22 /// SNORD25 /// SNORD26 /// SNORD27 /// SNORD28 /// SNORD29 /// SNORD31 / Fold change (Aza/veh), C12orf56 (ProbeSet 11735607_a_at) / Fold change (ACY-1035/veh), C12orf56 (ProbeSet 11735607_a_at) / Fold change (Aza/veh), FGFR1OP (ProbeSet 11751329_s_at) / Fold change (ACY-1035/veh), FGFR1OP (ProbeSet 11751329_s_at) / Fold change (Aza/veh), VPS36 (ProbeSet 11739960_a_at) / Fold change (ACY-1035/veh), VPS36 (ProbeSet 11739960_a_at) / RFU SYPL1 (11715823_x_at) / Fold change /veh SYPL1 (11715823_x_at) / RFU IGFBP7 (11715501_s_at) / Fold change /veh IGFBP7 (11715501_s_at) / RFU REEP3 (11722064_at) / Fold change /veh REEP3 (11722064_at) / RFU IGLL1 (11728026_x_at) / Fold change /veh IGLL1 (11728026_x_at): dose or concentration left out as unconfirmed
Conditions: MV-4-11 cells, 48 hours

## Nc1ncn([C@@H]2O[C@H](CO)[C@@H](O)[C@H]2O)c(=O)n1 [azacitidine]
  Fold change /veh PIWIL2 (11732686_x_at): 1.30

From paper PMC5218480 (PLoS ONE, 2017)
